This test concerns the target T1, MAGL (Homo sapiens, UniProt Q99685).
T1 sequence (Q99685 1-303): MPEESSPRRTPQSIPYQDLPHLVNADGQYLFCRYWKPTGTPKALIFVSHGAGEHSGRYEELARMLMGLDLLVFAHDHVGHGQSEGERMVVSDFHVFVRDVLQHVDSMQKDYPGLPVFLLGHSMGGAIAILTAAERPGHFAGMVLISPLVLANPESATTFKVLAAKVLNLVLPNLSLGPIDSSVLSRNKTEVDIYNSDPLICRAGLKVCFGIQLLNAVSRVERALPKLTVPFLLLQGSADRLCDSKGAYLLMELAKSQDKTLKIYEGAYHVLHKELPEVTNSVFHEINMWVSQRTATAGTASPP
Kind of test: 2-AG assay: MAGL inhibitory activity by hydrolysis of 2-arachidonoylglycerol to arachidonic acid, followed by mass spectrometry. The class given is biochemical. Particulars: 15 min preincubation, 30 min reaction at RT, 8 μM 2-arachidonoylglycerol.

What is called IC50 is the concentration that gives 50% inhibition. A lower IC50 goes with inhibition by little substance. Regarding `N=S(=O)(c1cc(F)cc(CC2CC3(C2)CN(C(=O)N2CC4(COCC(=O)N4)C2)C3)c1)C(F)(F)F` (centres unmarked) [Example 322, 2-[6-[[3-fluoro-5-(trifluoromethylsulfoni-midoyl)phenyl]methyl]-2-azaspiro[3.3]heptane-2-carbonyl]-8-oxa-2,5-diazaspiro[3.5]nonan-6-one], the half-maximal inhibitory concentration (IC50) is 4.32 nM.
`O=C1CCC2(CN(C(=O)N3CC4(CCC(Cc5nnc(C(F)(F)F)[nH]5)CC4)C3)C2)N1` [Example 323, 2-[7-[[5-(trifluoromethyl)-4H-1,2,4-triazol-3-yl]methyl]-2-azaspiro[3.5]nonane-2-carbonyl]-2,5-diazaspiro[3.4]octan-6-one] returned an IC50 of 0.17 nM. This IC50 is about 25-fold lower than that of the compound before.
Turning to `O=C1CCC2(CN(C(=O)N3CC4(CC(Cc5cn(C6CC6)nc5C(F)(F)F)C4)C3)C2)N1` [Example 324], the IC50 was 3.35 nM.
Under `Cn1ncc(C(F)(F)F)c1CN1CCC2(CC1)CN(C(=O)N1CC3(CCC(=O)N3)C1)C2` [Example 325, 2-[7-[[2-methyl-4-(trifluoromethyl)pyrazol-3-yl]methyl]-2,7-diazaspiro[3.5]nonane-2-carbonyl]-2,5-diazaspiro[3.4]octan-6-one] stands 3.88 nM.
`Cc1cc(C(F)(F)F)nn1CC1CC2(C1)CN(C(=O)N1CC3(CCC(=O)N3)C1)C2` [Example 326, 2-[6-[[5-methyl-3-(trifluoromethyl)pyrazol-1-yl]methyl]-2-azaspiro[3.3]heptane-2-carbonyl]-2,5-diazaspiro[3.4]octan-6-one] had an IC50 of 6.53 nM.
As for `O=C1CCC2(CN(C(=O)N3CC4(CC(Cc5nccc(C(F)(F)F)n5)C4)C3)C2)N1` [Example 327, 2-[6-[[4-(trifluoromethyl)pyrimi-din-2-yl]methyl]-2-azaspiro[3.3]heptane-2-carbonyl]-2,5-diazaspiro[3.4]octan-6-one], the figure is 7.57 nM; as for `Cc1cc(C(F)(F)F)n(CC2CC3(C2)CN(C(=O)N2CC4(CCC(=O)N4)C2)C3)n1` [Example 328, 2-[6-[[3-methyl-5-(trifluoromethyl)pyrazol-1-yl]methyl]-2-azaspiro[3.3]heptane-2-carbonyl]-2,5-diazaspiro[3.4]octan-6-one], 15.9 nM; as for `O=C1CCC2(CN(C(=O)N3CC4(CC(Cc5cc(C(F)(F)F)c[nH]c5=O)C4)C3)C2)N1` [Example 329, 2-[6-[[2-keto-5-(trifluoromethyl)-1H-pyridin-3-yl]methyl]-2-azaspiro[3.3]heptane-2-carbonyl]-2,5-diazaspiro[3.4]octan-6-one], 16.1 nM.
`O=C1CCC2(CN(C(=O)N3CC4(CC(Cn5cnc(C6(C(F)(F)F)CC6)n5)C4)C3)C2)N1` [Example 330, 2-[6-[[3-[1-(trifluoromethyl)cyclopro-pyl]-1,2,4-triazol-1-yl]methyl]-2-azaspiro[3.3]heptane-2-carbonyl]-2,5-diazaspiro[3.4]octan-6-one] returned an IC50 of 24.6 nM.
In turn, `CC(C)(C)c1ncc(CN2CC3(C2)CN(C(=O)N2CC4(CCC(=O)N4)C2)C3)s1` [Example 331, 2-[6-[(2-tert-butylthiazol-5-yl)methyl]-2,6-diazaspiro[3.3]heptane-2-carbonyl]-2,5-diazaspiro[3.4]octan-6-one] came in with an IC50 of 45.2 nM.
`O=C1CCC2(CN(C(=O)N3CC4(CCN(Cc5cc(C(F)(F)F)sn5)CC4)C3)C2)N1` [Example 332, 2-[7-[[5-(trifluoromethyl)isothia-zol-3-yl]methyl]-2,7-diazaspiro[3.5]nonane-2-carbonyl]-2,5-diazaspiro[3.4]octan-6-one] returned a half-maximal inhibitory concentration (IC50) of 52.7 nM.
As for `O=C1CCC2(CN(C(=O)N3CC4(CC(Cc5n[nH]c(C(F)(F)F)n5)C4)C3)C2)N1` [Example 333, 2-[6-[[5-(trifluoromethyl)-1H-1,2,4-triazol-3-yl]methyl]-2-azaspiro[3.3]heptane-2-carbonyl]-2,5-diazaspiro[3.4]octan-6-one], the half-maximal inhibitory concentration (IC50) was 88.1 nM.
`O=C1CCC2(CN(C(=O)N3CC4(CN(Cc5snnc5C5CCC5)C4)C3)C2)N1` [Example 334, 2-[6-[(4-cyclobutylthiadiazol-5-yl)methyl]-2,6-diazaspiro[3.3]heptane-2-carbonyl]-2,5-diazaspiro[3.4]octan-6-one] registered an IC50 of 88.2 nM.
As for `N=S(=O)(c1ccc(OC2CC3(C2)CN(C(=O)N2CC4(CCC(=O)N4)C2)C3)cc1)C(F)(F)F` (centres unmarked) [Example 335], inhibition was half-maximal at 101 nM (IC50).
Compound `CP(C)(=O)c1ccc(CC2CC3(C2)CN(C(=O)N2CC4(CCC(=O)N4)C2)C3)c(F)c1` [Example 336, 2-[6-(4-dimethylphosphoryl-2-fluoro-benzyl)-2-azaspiro[3.3]heptane-2-carbonyl]-2,5-diazaspiro[3.4]octan-6-one] yielded an IC50 of 146 nM.
As for `Cn1nc(C(F)(F)F)cc1CN1CCC2(CC1)CN(C(=O)N1CC3(CCC(=O)N3)C1)C2` [Example 337, 2-[7-[[2-methyl-5-(trifluoromethyl)pyrazol-3-yl]methyl]-2,7-diazaspiro[3.5]nonane-2-carbonyl]-2,5-diazaspiro[3.4]octan-6-one], the figure is 160 nM.
As for `O=C1CCC2(CN(C(=O)N3CC4(CCN(Cc5cc(C(F)(F)F)on5)CC4)C3)C2)N1` [Example 338, 2-[7-[[5-(trifluoromethyl)isoxazol-3-yl]methyl]-2,7-diazaspiro[3.5]nonane-2-carbonyl]-2,5-diazaspiro[3.4]octan-6-one], the IC50 amounted to 178 nM. The IC50 values of the last two compounds are within 1.5-fold of each other.
Take `CP(C)(=O)c1cc(F)cc(CC2CC3(C2)CN(C(=O)N2CC4(CCC(=O)N4)C2)C3)c1` [Example 339, 2-[6-(3-dimethylphosphoryl-5-fluoro-benzyl)-2-azaspiro[3.3]heptane-2-carbonyl]-2,5-diazaspiro[3.4]octan-6-one]: the midpoint of inhibition, the IC50, lay at 215 nM.
On to `O=C1CCC2(CN(C(=O)N3CC4(CN(Cc5nc(C6CC6)ns5)C4)C3)C2)N1` [Example 340, 2-[6-[(3-cyclopropyl-1,2,4-thiadiazol-5-yl)methyl]-2,6-diazaspiro[3.4]heptane-2-carbonyl]-2,5-diazaspiro[3.4]octan-6-one], for which 428 nM corresponded to half-maximal inhibition (IC50).
For the compound `Cc1sc(CN2CC3(C2)CN(C(=O)N2CC4(CCC(=O)N4)C2)C3)nc1C(F)(F)F` [Example 341, 2-[6-[[5-methyl-4-(trifluoromethyl)thiazol-2-yl]methyl]-2,6-diazaspiro[3.3]heptane-2-carbonyl]-2,5-diazaspiro[3.4]octan-6-one], the concentration for half-maximal inhibition (IC50) stood at 730 nM. This IC50 lies about 1.7-fold higher than the previous one.
`O=C1CCC2(CN(C(=O)N3CC4(CN(Cc5nnc(C(F)(F)F)s5)C4)C3)C2)N1` [Example 342, 2-[6-[[5-(trifluoromethyl)-1,3,4-thiadiazol-2-yl]methyl]-2,6-diazaspiro[3.3]heptane-2-carbonyl]-2,5-diazaspiro[3.4]octan-6-one] registered an IC50 of 1600 nM.
In turn, `Cc1nc(C(F)(F)F)c(CN2CC3(C2)CN(C(=O)N2CC4(CCC(=O)N4)C2)C3)s1` [Example 343, 2-[6-[[2-methyl-4-(trifluoromethyl)thiazol-5-yl]methyl]-2,6-diazaspiro[3.4]heptane-2-carbonyl]-2,5-diazaspiro[3.4]octan-6-one] yielded an IC50 of 1800 nM.
`Cn1cc(OC2CC3(C2)CN(C(=O)N2CC4(CCC(=O)N4)C2)C3)cn1` [Example 344, 2-[6-(1-methylpyrazol-4-yl)oxy-2-azaspiro[3.3]heptane-2-carbonyl]-2,5-diazaspiro[3.4]octan-6-one] showed an IC50 of 2450 nM. This IC50 and that of the compound before are within 1.5-fold of each other.

The values above are taken from patent publication US20240383904A1, “HETEROCYCLIC COMPOUNDS” (Hoffmann-La Roche Inc., priority 2021, published 2024).
